Columns and labels:
[1] = system: HBV viral production in AD38 cells; test: Viral load production in AD38 cells by quantitative PCR of the HBV core sequence in supernatant; format: cell-based; conditions: 10 μM compound, 6 days at 37° C., viral load in supernatant compared against DMSO control wells; for activity at 10 µM: Hepatitis B virus, 144 h, read-out: AD38 Viral Load (CpAM/DMSO %) at 10 μM
Protocol: (§1) Example 56: Assay Measuring Activity of Compounds on Viral Production in and on Viability of AD38 Cells
(§2) AD38 cells were then re-suspended with 10 mL of Treatment Medium and counted. Wells of a collagen coated 96-well NUNC microtiter plate were seeded at 50,000/well in 180 μL of Treatment Medium, and 20 μL of in treatment media with either 10% DMSO (Control) or a 10× solution of compound in 10% DMSO was added. Plates were incubated for 6 days at 37° C.
Viral load production was assayed by quantitative PCR of the core sequence. Briefly, 5 μL of clarified supematant was added to a PCR reaction mixture that contained forward primers HBV-f 5′-CTGTGCCTTGGGTGGCTTT-3′, Reverse primers HBV-r 5′-[…]-3′ and Fluorescent TaqMan™ Probes HBV-probe 5′-FAM/AGCTCCAAA/ZEN/[…]/3IABkFQ-3′ in Quanta Biosciences PerfeCTa® qPCR Toughmix®, and was subsequently on an Applied Biosystems VIIA7 in a final volume of 20 μL. The PCR mixture was incubated at 45° C. for 5 minutes, then 95° C. for 10 min, followed by 40 cycles of 10 seconds at 95° C. and 20 seconds at 60° C. Viral load was quantitated against known standards by using ViiA™ 7 Software. Viral load in the supematant from wells with treated cells were compared against viral load in supernatant from DMSO control wells (≥3 per plate).

AD38 cells = test: Viability of AD38 cells (Promega CellTiter-Glo) at the end of compound treatment; format: cell-based; conditions: 10 μM compound, 6 days, luminescence normalized against DMSO control wells (controls being 100%)
Protocol: as §1, §2
At the end of compound treatment period cell viability was assessed using a Promega CellTiter-Glo protocol. All supernatant was removed the previously treated 96-well microtiter plate, and 50 μL Tetracycline-free treatment medium (DMEM/F12 (1:1), lx Pen/step (cat#: 30-002-CL, Mediatech, Inc), with 2% FBS, Tet-system approved (cat#: 631106, Clontech), and 1% DMSO was added back to each well. Another 50 μL of CellTiter-Glo reagent solution (Promega, G7573) was then added at room temperature and the contents mixed for 2 minutes on an orbital shaker to induce cell lysis. This was followed by incubation at room temperature for 10 minutes to stabilize the luminescent signal. The luminescence was recorded for 0.2 seconds per well on a Tecan multimode platereader (Infinite M1000 pro). The luminescent signal from each well was normalized against that of untreated (DMSO) control wells. All results were reported percent viability (with controls being 100%).

Row | Structure (SMILES) | activity at 10 µM [1] | AD38 Viability Normalized Result (CPAM/DMSO %) at 10 μM (AD38 cells) | AD38 Viral Load (CpAM/DMSO %) at 10 μM [1]
1 | O=C(Nc1ccccc1)c1ccc2c(c1)NC(=O)c1ccccc1S2 [Compound 1223] | 2% | 28% | –
2 | O=C(NCCc1ccc(OC(F)(F)F)cc1)c1ccc2c(c1)NC(=O)c1ccccc1S2 [Compound 1182] | 13% | 55% | –
3 | CN1c2ccc(C(=O)NCCc3cccnc3)cc2NC(=O)c2ccccc21 [Compound 1549] | 7% | 109% | –
4 | O=C(NCc1cncnc1)c1ccc2c(c1)NC(=O)c1cccc(F)c1S2 [Compound 1390] | 2% | 92% | –
5 | O=C(Nc1nnco1)c1ccc2c(c1)NC(=O)c1cc(F)ccc1S2 [Compound 1537] | 36% | 98% | –
6 | O=C(NCc1cncnc1)c1ccc2c(c1)NC(=O)c1ccccc1S2(=O)=O [Compound 1446] | 3% | 84% | –
7 | O=C(NC(CO)Cc1cncnc1)c1ccc2c(c1)NC(=O)c1cc(F)ccc1S2 (stereo not drawn) [Compound 1361, 2-fluoro-N-(1-hydroxy-3-(pyrimidin-5-yl)propan-2-yl)-11-oxo-10, 11-dihydrodibenzo [b,f] [1,4] thiazepine-8-carboxamide] | 79% | 113% | –
8 | O=C(NCCCc1ccccc1)c1ccc2c(c1)NC(=O)c1ccccc1S2 [Compound 1108] | 1% | 105% | –
9 | COC(=O)C(Cc1cncnc1)NC(=O)c1ccc2c(c1)NC(=O)c1cc(F)ccc1S2 (stereo not drawn) [Compound 1342, Methyl 2-(2-fluoro-11-oxo-10, 11-dihydrodibenzo [b,f] [1,4]thiazepine-8-carboxamido)-3-(pyrimidin-5-yl) propanoate] | – | 95% | 113%
10 | O=C1Nc2cc(S(=O)(=O)N3CCCC3)ccc2Sc2ccccc21 [Compound 1432] | 79% | 91% | –
11 | CC(=O)N(CCc1ccccc1)Cc1ccc2c(c1)NC(=O)c1ccccc1S2 [Compound 1367, N-((11-oxo-10, 11-dihydrodibenzo [b,f] [1,4]thiazepin-8-yl)methyl)-N-phenethyl acetamide] | 33% | 88% | –
12 | NC(=O)c1ccc2c(c1)Sc1ccc(C(=O)NCCC3CCCCC3)cc1NC2=O [Compound 1276] | 24% | 89% | –
13 | O=C(Nc1cncc(F)c1)c1ccc2c(c1)NC(=O)c1cc(F)ccc1S2 [Compound 1337] | 77% | 91% | –
14 | O=C(NCc1cccnc1)c1ccc2c(c1)NC(=O)c1ccccc1O2 [Compound 1594] | 4% | 109% | –
15 | CC(C)(CNC(=O)c1ccc2c(c1)NC(=O)c1ccccc1S2)c1ccccc1 [Compound 1213] | 2% | 55% | –
16 | O=C(NCCC1CCOCC1)c1ccc2c(c1)NC(=O)c1ccccc1S2 [Compound 1191] | 14% | 121% | –
17 | O=C(Nc1cccc(-c2ccccc2)c1)c1ccc2c(c1)NC(=O)c1ccccc1S2(=O)=O [Compound 1458] | 12% | 49% | –
18 | O=C(NCCC1CCCO1)c1ccc2c(c1)NC(=O)c1ccccc1S2(=O)=O (stereo not drawn) [Compound 1636] | 0% | 111% | –
19 | O=C(NCc1cnco1)c1cc2c(cc1F)Sc1ccccc1C(=O)N2 [Compound 1430] | 56% | 92% | –
20 | CN1c2ccc(C(=O)NCCc3cncnc3)cc2NC(=O)c2ccccc21 [Compound 1548] | 28% | 85% | –
21 | CN(C)C(=O)c1ccc2c(c1)Sc1ccc(C(=O)NCCC3CCCCC3)cc1NC2=O [Compound 1278, N-(2-cyclohexylethyl)-N^3,N^3-dimethyl-11-oxo-10, 11-dihydrodibenzo [b,f] [1,4] thiazepine-3,8-dicarboxamide] | – | 88% | 3%

Row | Structure (SMILES) | activity at 10 µM [1] | AD38 Viability Normalized Result (CPAM/DMSO %) at 10 μM (AD38 cells) | AD38 Viral Load (CpAM/DMSO %) at 10 μM [1]
22 | CN(C)S(=O)(=O)c1ccc(CCNC(=O)c2ccc3c(c2)NC(=O)c2cccc(F)c2S3)cc1 [Compound 1488] | 84% | 97% | –
23 | O=C(NCC1CCCC1)c1ccc2c(c1)NC(=O)c1ccccc1S2 [Compound 1193] | 4% | 90% | –
24 | O=C(NCCc1cccnc1)c1ccc2c(c1)NC(=O)c1ccccc1S2(=O)=O [Compound 1448] | 3% | 85% | –
25 | O=C(Nc1cncnc1)c1ccc2c(c1)NC(=O)c1cc(F)ccc1S2 [Compound 1328] | 54% | 105% | –
26 | CC(Cc1cccc(O)c1)NC(=O)c1ccc2c(c1)NC(=O)c1ccccc1S2 (stereo not drawn) [Compound 1177] | 47% | 118% | –
27 | COC(=O)c1ccc(-c2cccc(NC(=O)c3ccc4c(c3)NC(=O)c3cc(F)ccc3S4)c2)cc1 [Compound 1420, Methyl 3′-(2-fluoro-11-oxo-10, 11-dihydrodibenzo [b,f] [1,4]thiazepine-8-carboxamido)-[1,1′-biphenyl]-4-carboxylate] | 29% | 86% | –
28 | O=C(NCc1cccc(OC(F)(F)F)c1)c1ccc2c(c1)NC(=O)c1ccccc1S2(=O)=O [Compound 1624] | 1% | 136% | –
29 | O=C(Nc1nc2ccc(F)cc2s1)c1ccc2c(c1)NC(=O)c1cc(F)ccc1S2 [Compound 1332] | 70% | 103% | –
30 | O=C(NCCc1cnco1)c1cc2c(cc1F)Sc1ccccc1C(=O)N2 [Compound 1557] | 54% | 86% | –
31 | Cc1c(C(=O)Nc2cccc(-c3ccccc3)c2)ccc2c1NC(=O)c1ccccc1S2 [Compound 1496] | 2% | 18% | –
32 | COc1ccc(CNC(=O)c2ccc3c(c2)NC(=O)c2ccccc2S3)cc1 [Compound 1161] | 1% | 99% | –
33 | O=C1Nc2c(cc(F)c(C(=O)NCc3cncnc3)c2F)Sc2ccccc21 [Compound 1518] | 67% | 85% | –
34 | O=C(NCCC1CCCCC1)c1ccc2c(c1)NC(=O)c1ccccc1C2 [Compound 1198] | 3% | 60% | –
35 | O=C(NCCN1CCOCC1)c1ccc2c(c1)NC(=O)c1ccccc1S2 [Compound 1175] | 30% | 123% | –
36 | Cl.O=C(NCC1CCNCC1)c1ccc2c(c1)NC(=O)c1ccccc1S2 [Compound 1609, 11-oxo-N-(piperidin-4-ylmethyl)-10, 11-dihydrodibenzo [b,f] [1,4] thiazepine-8-carboxamide hydrochloride] | 68% | 99% | –
37 | Cc1ccc(CNC(=O)c2ccc3c(c2)NC(=O)c2ccccc2S3)cc1 [Compound 1164] | 27% | 103% | –
38 | O=C(NCCc1cccnc1)c1ccc2c(c1)NC(=O)c1cccc(F)c1S2 [Compound 1391] | 2% | 71% | –
39 | CN1C(=O)c2ccccc2Sc2ccc(C(=O)NCc3cncs3)cc21 [Compound 1573] | 46% | 126% | –
40 | CN1c2ccc(C(=O)NCc3cccnc3)cc2NC(=O)c2ccccc21 [Compound 1499] | 2% | 84% | –
41 | O=C(Nc1nc2ccccc2s1)c1ccc2c(c1)NC(=O)c1cc(F)ccc1S2 [Compound 1339] | 113% | 70% | –
42 | Cc1cccc(CCNC(=O)c2ccc3c(c2)NC(=O)c2ccccc2S3)c1 [Compound 1183] | 2% | 36% | –

— US10183936B2, “Hepatitis B core protein allosteric modulators” (priority 2014, dated 2019)
